# Measurements reported in ChEMBL document CHEMBL4837181 (Eur J Med Chem, 2020).
# Columns and labels:
# [1] = Clearance in female cynomolgus monkey at 75 mg/kg, po measured on day 1; type: ADME, organism-based, Macaca fascicularis; conditions: in vivo
# [2] = Cmax in female cynomolgus monkey at 225 mg/kg, po measured on day 1; type: ADME, organism-based, Macaca fascicularis; design: route oral, dose 225 mg/kg; conditions: in vivo
# [3] = Half life in male cynomolgus monkey at 15 mg/kg, iv measured on day 1; type: ADME, organism-based, Macaca fascicularis; conditions: in vivo
# [4] = Apparent oral clearance in female cynomolgus monkey at 225 mg/kg, po measured on day 1; type: ADME, organism-based, Macaca fascicularis; conditions: in vivo
# [5] = AUC (0 to 12 hrs) in rat po BID measured on day 28; type: ADME, organism-based; design: time < 12 hr, route oral; conditions: in vivo
# [6] = Drug metabolism in Beagle dog hepatocytes assessed as unmetabolized compound at 10 uM incubated for 120 mins by UPLC-QTOF-PDA analysis; type: ADME, cell-based, Canis lupus familiaris, Hepatocyte; conditions: read-out: Drug metabolism
CL/F [1] [mL/min/kg],Cmax [2] [µM],half-life [3] [h],CL/F [4] [mL/min/kg],Compound,AUC at 12 h [5] [µM·h],"remaining at 2 h, 10 µM [6] [%]"
25.6,68.5,2,82.2,Cn1cc(C[C@@H](N)C(=O)O)c2ccccc21 [INDOXIMOD],,
,,,,CCOC(=O)[C@@H](Cc1cn(C)c2ccccc12)NC(=O)[C@@H](N)CC(C)C.Cl,953,1.1
